# Experiments:
# [1] = Pharmacokinetics after topical or oral administration in the rat; format: in vivo, Brown Norway rats
# Method: After the administrations, the animals (N=2) were euthanized at different time points (e.g. 4 and 8 hours) and tissues were collected for analysis. List of tissues collected include plasma, retina/retinal pigment epithelium (RPE)/choroid, vitreous humor and aqueous humor.
# ETA/ETB receptor = test: ETA/ETB selectivity (specificity); format: biochemical; settings: ETA versus ETB, rating in words
# Excerpt: (§1) In the above table, the physicochemical data, e.g., solubility, were obtained following standard protocols known in the field (see, e.g., Reis et al., Mini Rev Med Chem., 2010, 10(11):1071-6; Avdeef et al., Expert Opin Drug Metab Toxicol., 2005, 1(2):325-42; Bharate et al., Comb Chem High Throughput Screen., 2016, 19(6):461-9; and Jain et al., J Pharm Biomed Anal., 2013, 86:11-35); and the biochemical data, i.e., potency for ETA/ETB, were obtained following the protocols known in the field (see, e.g., Kirkby et al., Br J Pharmacol., 2008, 153(6):1105-19; and Maguire et al., Br J Pharmacol., 2014, 171(24):5555-72).
# ETA receptor = target: T1, ETA receptor (Homo sapiens, UniProt P25101); test: Functional potency for ETA receptor; format: biochemical
# T1 sequence (P25101 21-427): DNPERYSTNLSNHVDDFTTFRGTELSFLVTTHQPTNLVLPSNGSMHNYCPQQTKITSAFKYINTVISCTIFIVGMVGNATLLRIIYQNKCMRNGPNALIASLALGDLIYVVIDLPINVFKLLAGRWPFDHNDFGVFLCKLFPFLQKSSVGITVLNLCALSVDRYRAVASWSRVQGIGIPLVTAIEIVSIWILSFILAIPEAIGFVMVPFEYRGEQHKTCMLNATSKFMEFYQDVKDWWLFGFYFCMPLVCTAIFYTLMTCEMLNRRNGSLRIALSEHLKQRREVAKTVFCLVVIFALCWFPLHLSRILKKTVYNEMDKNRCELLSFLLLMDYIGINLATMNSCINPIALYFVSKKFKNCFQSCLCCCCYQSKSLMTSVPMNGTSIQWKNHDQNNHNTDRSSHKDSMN
# Excerpt: as §1
# [2] = Pharmacokinetics after intravitreal administration in the rabbit; format: in vivo, rabbits (Oryctolagus cuniculus); settings: plasma and ocular tissues, FIG. 9A-9D
# Method: To determine the pharmacokinetic and safety properties of Edonentan following intravitreal administration in the rabbit, rabbits (Oryctolagus cuniculus) received bilateral intravitreal injections (20 μL injection volume/eye). Following the injections, animals were tranquilized with a ketamine/xylazine cocktail, and then the animals were euthanized with an overdose of sodium pentobarbital (Euthasol). Animals designated for the pharmacokinetic analysis were euthanized at different time points (e.g. 12, 16, 24, 36 and 48 hours). At least 1.0 mL of whole blood was drawn from the marginal ear vein or cardiac puncture (terminal bleed only) into K2EDTA tubes for plasma collection and processed for analytical analysis.
# Immediately following euthanasia, the eyes was enucleated. Aqueous humor from both eyes was removed via syringe and snap frozen for analysis. Eyes were dissected when frozen to isolate various ocular tissues and minimize drug diffusion to adjacent tissues. Tissues from left and right eyes were collected in separate vials for analysis. List of tissues collected include plasma and aqueous humor, iris/ciliary body (ICB), retina, vitreous humor and RPE/choroid. The pharmacokinetic properties of intravitreally delivered Edonentan in rabbits are shown in FIG. 9A, FIG. 9B, FIG. 9C and FIG. 9D.
# laser-induced glaucoma = test: Laser-induced non-human primate glaucoma model, optic nerve head blood flow (LSFG); format: in vivo, rhesus macaque, Macaca mulatta; settings: IVT 50 μL of 0.02, 0.2 or 2.0 mg/mL, glaucomatous eye, over 6 hours
# Method: Non-human primates (rhesus macaque, Macaca mulatta) were obtained for this study. One eye of each animal underwent induction of elevation of intraocular pressure (IOP) by repeated laser photocoagulation of the trabecular meshwork. Imaging sessions were repeated to monitor the optic nerve head (ONH) and retinal structural changes. A study was performed to compare an experimental glaucoma eye and a contralateral healthy eye (control) of three non-human primates in global average mean blur rate (MBR) and MBR change from baseline over time as an index of ONH blood flow in a laser-induced glaucoma model. More specifically, a vehicle control, 0.02 mg/mL of Edonentan, 0.2 mg/mL of Edonentan, or 2.0 mg/mL of Edonentan was intravitreally administered (50 μL) to a glaucomatous eye of each of three non-human primates (rhesus macaque, Macaca mulatta). These graphs show the ONH blood flow in the three non-human primates after IVT administration of a vehicle alone (FIG. 7A, FIG. 7E, and FIG. 7I), 0.02 mg/mL of Edonentan (FIG. 7B, FIG. 7F, and FIG. 7J), 0.2 mg/mL of Edonentan (FIG. 7C, FIG. 7G, and FIG. 7K) or 2.0 mg/mL of Edonentan (FIG. 7D, FIG. 7H, and FIG. 7L).
# Stability in solid state = format: physicochemical; settings: 2 h @ l25° C.
# Excerpt: as §1
smiles,measurement,setting,value
"Cc1onc(NS(=O)(=O)c2ccccc2-c2ccc(-c3ncco3)cc2CN(C)C(=O)CC(C)(C)C)c1C [Edonentan, N-[[2′-[[(4,5-dimethyl-3-isoxazolyl)amino]sulfonyl]-4-(2-oxazolyl)[1,1′-biphenyl]-2-yl]methyl]-N,3,3-trimethylbutanamide]",Detection in aqueous humor,"[1]; oral, 17 mg/kg",detectable
same,Detection in retina/RPE/choroid and vitreous humor,"[1]; oral, 1.7 and 17 mg/kg",detectable
same,"Detection in retina/RPE/choroid, aqueous humor and vitreous humor","[1]; topical eye drop 100 μg, 4 and 8 hours post-administration",detected
same,Specificity (rating),ETA/ETB receptor,High specificity
same,IC50,ETA receptor; functional potency,1.54 nM
same,Functional Potency for ETA and ETB Receptors (rating),ETA receptor; rating in words,High potency
same,t1/2,[2],longer
same,"Optic nerve head (ONH) blood flow, mean blur rate (MBR)",laser-induced glaucoma,improvement of ONH blood flow in a dose-dependent manner
same,Stability in Solid State (rating),Stability in solid state,Stable

# — patent US11738007B2, “Treatment of glaucoma using endothelin receptor antagonists” (Perfuse Therapeutics, Inc., priority 2019, dated 2023)
